Where two headings read alike, the source gives them in different places. One block for each molecule: values may come before it.
Columns and labels:
MDA-MB-231 cells = assay: Antiproliferative MTT assay; format: cell-based; details: Homo sapiens, MDA-MB-231, 48 h, read-out: Antiproliferative IC50
Protocol: (§1) The stock solutions of compounds to be tested were prepared in culture medium. […] To determine cell viability, 20 μL MTT working solution (5 mg/mL) was then added to each well and incubated for another 4 h. After this incubation, the medium was carefully aspirated, and 200 μL dimethyl sulfoxide (DMSO) was added to each well and vibrated for 10 min to make sure formed formazans were completely dissolved. The optical densities (ODs) at 490 and 630 nm were counted by Universal Microplate Spectrophotometer. […] Origin 7.5 software was used to calculate the IC50 values from at least three independent experiments.

U937 cells = assay: Antiproliferative MTT assay; format: cell-based; details: Homo sapiens, U-937, 48 h, read-out: Antiproliferative IC50
Protocol: as §1

K562 cells = assay: Antiproliferative MTT assay; format: cell-based; details: Homo sapiens, K562, 48 h, read-out: Antiproliferative IC50
Protocol: as §1

SW579 cells = assay: Antiproliferative MTT assay; format: cell-based; details: Homo sapiens, SW579, 48 h, read-out: Antiproliferative IC50
Protocol: as §1

A2780 cells = assay: Antiproliferative MTT assay; format: cell-based; details: Homo sapiens, A2780, 48 h, read-out: Antiproliferative IC50
Protocol: as §1

H322 cells = assay: Antiproliferative MTT assay; format: cell-based; details: Homo sapiens, NCI-H322, 48 h, read-out: Antiproliferative IC50
Protocol: as §1

Hela cells = assay: Antiproliferative MTT assay; format: cell-based; details: Homo sapiens, 48 h, read-out: Antiproliferative IC50
Protocol: as §1

SK-NEP-1 cells = assay: Antiproliferative MTT assay; format: cell-based; details: Homo sapiens, SK-NEP-1, 48 h, read-out: Antiproliferative IC50
Protocol: as §1

U266 cells = assay: Antiproliferative MTT assay; format: cell-based; details: Homo sapiens, U-266, 48 h, read-out: Antiproliferative IC50
Protocol: as §1

FTC-133 cells = assay: Antiproliferative MTT assay; format: cell-based; details: Homo sapiens, FTC-133, 48 h, read-out: Antiproliferative IC50
Protocol: as §1

OS-RC-2 cells = assay: Antiproliferative MTT assay; format: cell-based; details: Homo sapiens, OS-RC-2, 48 h, read-out: Antiproliferative IC50
Protocol: as §1

HepG2 cells [1] = assay: Cell cycle analysis (PI, flow cytometry); details: 6 h; for Percentage of cells in G2/M phase (third peak): HepG2
Protocol: (§5) Following 6-h incubation, cells were washed twice with cold PBS and then fixed in 70% precooled ethanol at 4°C for 12 h. The fixed cells were washed again and then stained with PI/RNase A for 30 min at room temperature.

HepG2 cells [2] = assay: Antiproliferative MTT assay; format: cell-based, human
Protocol: as §1

HDAC6 = target: T1, HDAC6 (Homo sapiens, UniProt Q9UBN7); assay: HDAC enzyme inhibition assay (fluorogenic substrate); format: biochemical
T1 construct: purchased BPS Bioscience
Protocol: (§2) All of the HDAC enzymes tested were purchased from BPS Bioscience. First, 20 μL of each recombinant HDAC enzyme solution (HDAC1, 2, 3, 4, 6, 7, 8, and 9) was mixed with various concentrations of tested compound samples (20 μL) in a 96-well plate. The mixture was incubated at 30°C for 1 h for the dose-dependent assay. Additionally, mixtures were incubated for 15, 30, 60, and 90 min, for the time-dependent assay, and then 10 μL of fluorogenic substrate [3 mM Boc-Lys(acetyl)-AMC or Boc-Lys (trifluoroacetyl)-AMC for HDAC1/2/3/6 or HDAC4/7/8/9, respectively] was added. Then, the acetylation reaction was initiated by adding HDAC substrate working solution and incubating at 30°C for 2 h. After the desired time, 10 μL developer with trypsin and trichostatin A was added to stop the reaction, and then the mixture was incubated at 30°C for another 30 min.
(§3) A microplate reader was used to determine fluorescence intensity at excitation: 360 nm and emission: 460 nm. The inhibition ratios were calculated by comparing the fluorescence intensities from tested wells to those of controls. The IC50 curves and values were then obtained with GraphPad Prism 6.0 software.

HDAC1 = target: T2, HDAC1 (Homo sapiens, UniProt Q13547); assay: as above; format: biochemical; details: recombinant enzyme, n ≥ 2, SD <10% of mean
T2 construct: purchased BPS Bioscience
Protocol: as §2, §3

HDAC7 = target: T3, HDAC7 (Homo sapiens, UniProt Q8WUI4); assay: as above; format: biochemical; details: recombinant enzyme, n ≥ 2, SD <10% of mean
T3 construct: purchased BPS Bioscience
Protocol: as §2, §3

HDAC2 = target: T4, HDAC2 (Homo sapiens, UniProt Q92769); assay: biochemical; details: recombinant enzyme, n ≥ 2, SD <10% of mean
T4 construct: purchased BPS Bioscience
Protocol: as §2, §3

HDAC4 = target: T5, HDAC4 (Homo sapiens, UniProt P56524); assay: biochemical
T5 construct: purchased BPS Bioscience
Protocol: as §2, §3

HDAC8 = target: T6, HDAC8 (Homo sapiens, UniProt Q9BY41); assay: biochemical
T6 construct: purchased BPS Bioscience
Protocol: as §2, §3

HDAC9 = target: T7, HDAC9 (Homo sapiens, UniProt Q9UKV0); assay: biochemical
T7 construct: purchased BPS Bioscience
Protocol: as §2, §3

HDAC3 = target: T8, HDAC3 (Homo sapiens, UniProt O15379); assay: biochemical; format: biochemical
T8 construct: purchased BPS Bioscience
Protocol: as §2, §3

HepG2 xenograft = assay: In vivo antitumor activity, HepG2 xenograft nude mice model; details: 100 mg/kg once a day for 15 days
Protocol: When the tumor is prominent, the BALB/c female mice were randomly assigned into control and treatment groups (six mice per group).
Injected mice were kept for 10 days; those with palpable tumors were then randomly assigned into treatment and control groups (six mice per group). The treatment groups were administrated with 100 mg/kg/d test compound intragastrically, whereas the control group was administered with an equal volume of phosphate-buffered saline (PBS) solution. The tumor size and body weight were assessed every day. After 15 days of treatment, the mice were euthanized, and tumor weights were acquired with an electronic balance.

H460 cells = assay: Antiproliferative MTT assay; format: cell-based; details: Homo sapiens, NCI-H460, 48 h, read-out: Antiproliferative IC50
Protocol: (§4) […]. The stock solutions of compounds to be tested were prepared in culture medium. Tumor cell lines were cultured in 96-well plates at a density of 5 × 10^3 cells per well and incubated until 90–95% confluence, and then each well received 100 μL medium containing desired concentrations of test compounds, and then incubated at 37°C and 5% CO2 for 48 h. To determine cell viability, 20 μL MTT working solution (5 mg/mL) was then added to each well and incubated for another 4 h. After this incubation, the medium was carefully aspirated, and 200 μL dimethyl sulfoxide (DMSO) was added to each well and vibrated for 10 min to make sure formed formazans were completely dissolved. The optical densities (ODs) at 490 and 630 nm were counted by Universal Microplate Spectrophotometer. […] Origin 7.5 software was used to calculate the IC50 values from at least three independent experiments.

SW480 cells = assay: Antiproliferative MTT assay; format: cell-based; details: Homo sapiens, SW480, 48 h, read-out: Antiproliferative IC50
Protocol: as §4

A549 cells = assay: Antiproliferative MTT assay; format: cell-based; details: Homo sapiens, A549, 48 h, read-out: Antiproliferative IC50
Protocol: as §4

HepG2 cells [3] = assay: Cell apoptosis assay (annexin V-FITC/PI, flow cytometry); format: cell-based, human; details: 24 h, normal group 5.83%
Protocol: Then cells were washed with PBS, collected, and resuspended with binding buffer from a commercially available annexin V–FITC kit (Thermo Fisher Co., USA) and mixed with 5 μL of annexin V–FITC gently. Following 10 min of incubation, 1 μL of propidium iodide was added to the samples and incubated for another 20 min while avoiding light. Flow cytometry was used to determine cell apoptosis status (CytoFLEX, Beckman Coulter).

HepG2 cells xenograft = system: HepG2 cells xenograft; parameters: method as in PMID 31543818; details: nude mice xenograft model; cited from earlier work
HepG2 cells [4] = details: 6 h
Protocol: as §5

HepG2 cells [5] = assay: Drug combination analysis (MTT assay); format: cell-based; details: Homo sapiens, 48 h, read-out: Percentage inhibition rate (PIR)
Protocol: The efficacy of drug combination of FNA with taxol and camptothecin was evaluated via cell viability assay (MTT assay). The stock solutions of tested compounds were diluted to the desired concentrations with culture medium. The cells were cultured in 96-well plates at a density 5 × 10^3 cells per well and incubated until 90–95% confluence, and then 100 μL of medium containing desired concentrations of test compounds was added to the wells. Following 48-h incubation, 10 μL of MTT working solution was added to each well and incubated for another 4 h. After removal of the medium, 200 μL DMSO was added to each well to dissolve the formed formazan. The plates were vortexed for 10 min to ensure complete dissolution. Then the OD was acquired with a microplate reader at 490 and 630 nm.

T8 sequence (O15379 whole entry): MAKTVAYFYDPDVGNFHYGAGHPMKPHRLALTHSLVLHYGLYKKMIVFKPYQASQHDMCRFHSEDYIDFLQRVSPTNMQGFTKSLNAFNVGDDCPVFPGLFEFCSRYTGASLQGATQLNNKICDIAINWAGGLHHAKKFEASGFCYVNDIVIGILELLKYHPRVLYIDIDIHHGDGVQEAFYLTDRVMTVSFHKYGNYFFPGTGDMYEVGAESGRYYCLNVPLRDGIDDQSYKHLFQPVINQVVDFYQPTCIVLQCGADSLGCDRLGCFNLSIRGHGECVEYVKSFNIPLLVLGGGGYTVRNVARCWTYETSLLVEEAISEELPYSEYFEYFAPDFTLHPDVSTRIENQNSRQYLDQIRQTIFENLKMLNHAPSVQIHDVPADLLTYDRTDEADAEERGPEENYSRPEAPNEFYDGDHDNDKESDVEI
T8 sequence (Q9Y618 395-489 partner limits assumed): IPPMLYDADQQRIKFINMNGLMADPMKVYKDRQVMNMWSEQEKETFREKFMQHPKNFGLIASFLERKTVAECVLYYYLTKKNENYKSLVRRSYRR
T5 sequence (P56524 whole entry): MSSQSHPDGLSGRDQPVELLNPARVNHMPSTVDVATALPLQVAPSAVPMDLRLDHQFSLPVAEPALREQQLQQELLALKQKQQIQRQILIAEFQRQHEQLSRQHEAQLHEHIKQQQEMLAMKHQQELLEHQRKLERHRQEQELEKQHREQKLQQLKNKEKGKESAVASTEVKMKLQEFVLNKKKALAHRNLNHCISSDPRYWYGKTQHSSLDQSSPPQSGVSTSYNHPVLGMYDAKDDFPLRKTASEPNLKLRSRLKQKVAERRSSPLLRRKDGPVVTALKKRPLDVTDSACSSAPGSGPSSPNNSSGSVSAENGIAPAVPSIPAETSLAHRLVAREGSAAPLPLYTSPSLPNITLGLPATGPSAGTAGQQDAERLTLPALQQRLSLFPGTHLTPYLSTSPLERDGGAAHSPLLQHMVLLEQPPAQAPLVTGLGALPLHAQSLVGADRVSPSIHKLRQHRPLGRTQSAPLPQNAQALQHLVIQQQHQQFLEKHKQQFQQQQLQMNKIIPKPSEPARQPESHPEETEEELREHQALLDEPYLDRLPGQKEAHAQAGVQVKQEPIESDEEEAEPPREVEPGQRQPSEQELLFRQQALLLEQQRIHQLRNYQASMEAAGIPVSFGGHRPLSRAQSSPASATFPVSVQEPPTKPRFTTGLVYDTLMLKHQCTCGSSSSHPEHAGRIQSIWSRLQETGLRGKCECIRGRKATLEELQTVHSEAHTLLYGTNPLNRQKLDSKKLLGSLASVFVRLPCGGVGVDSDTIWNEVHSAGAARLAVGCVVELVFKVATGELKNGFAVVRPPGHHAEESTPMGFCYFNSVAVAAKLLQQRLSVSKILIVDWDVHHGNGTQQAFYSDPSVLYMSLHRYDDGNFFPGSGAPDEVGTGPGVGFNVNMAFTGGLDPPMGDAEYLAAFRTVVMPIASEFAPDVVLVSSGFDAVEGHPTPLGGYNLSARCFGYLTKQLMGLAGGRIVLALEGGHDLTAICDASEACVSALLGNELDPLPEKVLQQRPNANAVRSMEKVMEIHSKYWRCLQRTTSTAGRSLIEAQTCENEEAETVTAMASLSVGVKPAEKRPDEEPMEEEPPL
T2 sequence (Q13547 whole entry): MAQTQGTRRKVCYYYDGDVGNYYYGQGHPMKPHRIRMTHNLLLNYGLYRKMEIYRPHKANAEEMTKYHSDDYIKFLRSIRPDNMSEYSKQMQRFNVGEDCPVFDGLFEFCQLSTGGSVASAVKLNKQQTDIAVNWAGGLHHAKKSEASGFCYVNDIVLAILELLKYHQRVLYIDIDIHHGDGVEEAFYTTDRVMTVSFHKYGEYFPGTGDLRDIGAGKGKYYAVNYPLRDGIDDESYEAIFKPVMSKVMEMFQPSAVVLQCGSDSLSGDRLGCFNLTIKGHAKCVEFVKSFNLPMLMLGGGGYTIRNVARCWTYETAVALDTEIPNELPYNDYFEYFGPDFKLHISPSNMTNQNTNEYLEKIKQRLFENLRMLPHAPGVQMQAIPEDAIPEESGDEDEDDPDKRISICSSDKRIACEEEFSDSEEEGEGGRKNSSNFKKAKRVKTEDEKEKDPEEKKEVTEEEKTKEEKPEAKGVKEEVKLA
T1 sequence (Q9UBN7 whole entry): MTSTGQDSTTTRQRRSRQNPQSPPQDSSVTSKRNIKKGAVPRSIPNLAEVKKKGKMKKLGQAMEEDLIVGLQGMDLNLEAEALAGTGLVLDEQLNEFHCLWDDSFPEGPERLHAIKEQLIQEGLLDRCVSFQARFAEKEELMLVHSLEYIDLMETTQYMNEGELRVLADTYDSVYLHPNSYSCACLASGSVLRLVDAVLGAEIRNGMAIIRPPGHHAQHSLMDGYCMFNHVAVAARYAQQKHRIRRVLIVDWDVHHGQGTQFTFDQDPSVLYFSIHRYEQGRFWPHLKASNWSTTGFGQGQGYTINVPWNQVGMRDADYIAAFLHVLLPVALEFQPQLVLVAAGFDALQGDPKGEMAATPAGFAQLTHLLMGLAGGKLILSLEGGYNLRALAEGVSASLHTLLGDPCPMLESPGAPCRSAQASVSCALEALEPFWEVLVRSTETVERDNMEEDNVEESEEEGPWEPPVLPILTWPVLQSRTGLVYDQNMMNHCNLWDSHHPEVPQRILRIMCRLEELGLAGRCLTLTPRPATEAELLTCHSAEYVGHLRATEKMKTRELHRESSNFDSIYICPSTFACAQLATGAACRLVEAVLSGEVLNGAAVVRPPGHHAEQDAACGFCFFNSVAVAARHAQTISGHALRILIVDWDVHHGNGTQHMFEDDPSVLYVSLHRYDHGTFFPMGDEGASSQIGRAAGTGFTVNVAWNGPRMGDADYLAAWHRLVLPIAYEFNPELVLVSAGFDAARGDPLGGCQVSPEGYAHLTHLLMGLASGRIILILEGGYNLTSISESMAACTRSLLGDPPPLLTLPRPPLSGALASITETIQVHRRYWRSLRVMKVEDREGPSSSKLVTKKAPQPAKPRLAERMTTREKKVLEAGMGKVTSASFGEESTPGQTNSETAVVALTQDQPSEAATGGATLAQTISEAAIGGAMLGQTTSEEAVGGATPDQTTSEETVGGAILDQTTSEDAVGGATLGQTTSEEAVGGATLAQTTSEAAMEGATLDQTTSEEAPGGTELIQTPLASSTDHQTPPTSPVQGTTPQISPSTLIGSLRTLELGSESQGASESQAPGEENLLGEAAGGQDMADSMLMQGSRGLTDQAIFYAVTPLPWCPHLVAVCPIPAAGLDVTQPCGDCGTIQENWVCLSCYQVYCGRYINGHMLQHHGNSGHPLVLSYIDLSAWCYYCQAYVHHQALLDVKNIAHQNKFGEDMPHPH
T3 sequence (Q8WUI4 whole entry): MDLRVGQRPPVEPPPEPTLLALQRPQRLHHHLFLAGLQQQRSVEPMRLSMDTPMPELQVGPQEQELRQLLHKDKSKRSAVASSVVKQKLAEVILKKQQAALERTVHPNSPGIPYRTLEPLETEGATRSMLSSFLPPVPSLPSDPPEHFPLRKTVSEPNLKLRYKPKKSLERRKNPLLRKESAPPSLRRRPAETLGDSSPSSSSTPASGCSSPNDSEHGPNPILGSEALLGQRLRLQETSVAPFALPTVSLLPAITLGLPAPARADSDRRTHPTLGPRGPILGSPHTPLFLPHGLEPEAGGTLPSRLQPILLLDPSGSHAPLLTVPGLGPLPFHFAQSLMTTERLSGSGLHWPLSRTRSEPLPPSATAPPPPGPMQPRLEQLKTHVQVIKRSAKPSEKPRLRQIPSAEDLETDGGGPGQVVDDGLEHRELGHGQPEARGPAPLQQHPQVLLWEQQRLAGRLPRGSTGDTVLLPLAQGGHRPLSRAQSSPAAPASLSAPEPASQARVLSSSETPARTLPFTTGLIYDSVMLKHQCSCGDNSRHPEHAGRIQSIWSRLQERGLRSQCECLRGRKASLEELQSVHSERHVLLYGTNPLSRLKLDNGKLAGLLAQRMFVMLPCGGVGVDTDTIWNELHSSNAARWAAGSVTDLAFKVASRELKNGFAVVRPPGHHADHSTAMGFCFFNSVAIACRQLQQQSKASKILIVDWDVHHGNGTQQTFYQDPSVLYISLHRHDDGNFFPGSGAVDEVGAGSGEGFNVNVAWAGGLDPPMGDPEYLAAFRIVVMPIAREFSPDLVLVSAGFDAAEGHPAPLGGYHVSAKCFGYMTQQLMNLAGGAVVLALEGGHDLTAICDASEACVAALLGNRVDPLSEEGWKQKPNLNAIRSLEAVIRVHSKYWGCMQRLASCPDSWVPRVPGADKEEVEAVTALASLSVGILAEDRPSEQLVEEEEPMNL
T4 sequence (Q92769 whole entry): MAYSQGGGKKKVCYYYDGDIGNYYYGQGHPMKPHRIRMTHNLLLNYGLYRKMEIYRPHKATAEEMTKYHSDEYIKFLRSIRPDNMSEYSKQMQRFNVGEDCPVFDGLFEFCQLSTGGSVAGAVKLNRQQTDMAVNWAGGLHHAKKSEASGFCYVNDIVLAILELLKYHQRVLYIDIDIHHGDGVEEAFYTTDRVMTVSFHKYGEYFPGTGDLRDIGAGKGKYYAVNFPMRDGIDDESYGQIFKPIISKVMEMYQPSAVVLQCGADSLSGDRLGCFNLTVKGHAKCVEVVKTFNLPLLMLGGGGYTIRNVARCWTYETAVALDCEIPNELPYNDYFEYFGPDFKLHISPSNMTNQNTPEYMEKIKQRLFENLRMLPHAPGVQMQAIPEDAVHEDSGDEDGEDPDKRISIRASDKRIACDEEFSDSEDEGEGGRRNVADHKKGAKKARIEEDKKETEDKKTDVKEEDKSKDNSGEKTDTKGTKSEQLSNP

Structure (SMILES): Nc1cc(F)ccc1NC(=O)c1ccc(N(CCCl)CCCl)cc1 [FNA, N-(2-amino-4-fluorophenyl)-4-[bis-(2-chloroethyl)-amino]-benzamide]
- IC50 (MDA-MB-231 cells): 35.29 ± 0.03 µM
- IC50 (U937 cells): 0.55 ± 0.03 µM
- IC50 (K562 cells): 1.31 ± 0.05 µM
- IC50 (SW579 cells): 52.4 ± 0.13 µM
- IC50 (A2780 cells): 4.3 ± 0.12 µM
- IC50 (H322 cells): 6.36 ± 0.07 µM
- IC50 (Hela cells): 1.41 ± 0.04 µM
- IC50 (SK-NEP-1 cells): 8.32 ± 0.18 µM
- IC50 (U266 cells): 0.63 ± 0.32 µM
- IC50 (FTC-133 cells): 9.09 ± 0.13 µM
- IC50 (OS-RC-2 cells): > 100 µM
- Percentage of cells in G2/M phase (third peak) (HepG2 cells [1]; 0.125 μM): 18.84%
- Percentage of cells in G2/M phase (third peak) (HepG2 cells [1]; 0.5 μM): 59.36%
- Potency relative to SAHA in inhibition of the growth of HepG2 cells (HepG2 cells [2]; HepG2, ratio of IC50 values): 13.3 fold
- IC50 (HepG2 cells [2]; Homo sapiens, HepG2, 48 h, read-out: Antiproliferative IC50): 1.3 ± 0.25 µM
- IC50 (HDAC6): > 5 µM
- IC50 (HDAC1): 0.843 µM
- IC50 (HDAC7): > 5 µM
- IC50 (HDAC2): 0.949 µM
- IC50 (HDAC4): > 5 µM
- IC50 (HDAC8): > 5 µM
- IC50 (HDAC9): > 5 µM
- HDAC3 selectivity vs. HDAC1 (HDAC3; ratio of IC50 values): 8.83 fold
- HDAC3 selectivity vs. HDAC2 (HDAC3; ratio of IC50 values): 9.94 fold
- IC50 (HDAC3; recombinant enzyme, n ≥ 2, SD <10% of mean): 0.0955 µM
- Tumor growth inhibition (TGI) rate (HepG2 xenograft): 48.89%
- IC50 (H460 cells): 4.73 ± 0.05 µM
- IC50 (SW480 cells): > 100 µM
- IC50 (A549 cells): 33.74 ± 0.04 µM
- Apoptosis rate of HepG2 cells (HepG2 cells [3]; 1 μM): 14.08%
- Apoptosis rate of HepG2 cells (HepG2 cells [3]; 3 μM): 19.11%
- Apoptosis rate of HepG2 cells (HepG2 cells [3]; 9 μM): 28.83%

Structure (SMILES): Nc1ccccc1NC(=O)c1ccc(N(CCCl)CCCl)cc1 [NA, N-(2-aminophenyl)-4-(bis(2-chloroethyl)amino)benzamide]
- In vivo potency compared with SAHA (HepG2 cells xenograft): lower potency than SAHA

- IC50 (H460 cells): 7.63 ± 0.03 µM
- IC50 (SW480 cells): 2.91 ± 0.04 µM
Structure (SMILES): O=C(CCCCCCC(=O)Nc1ccccc1)NO [SAHA, Vorinostat]
- Effect in the regulation of HepG2 cell cycle (HepG2 cells [1]; 0.125, 0.25 and 0.5 μM): did not exhibit any effects
- Percentage of cells, first peak of cell cycle histogram (phase not given) (HepG2 cells [4]; 0.125 μM): 57.65%
- Percentage of cells, second peak of cell cycle histogram (phase not given) (HepG2 cells [4]; 0.125 μM): 25.02%
- Percentage of cells, first peak of cell cycle histogram (phase not given) (HepG2 cells [4]; 0.25 μM): 56.26%
- Percentage of cells, second peak of cell cycle histogram (phase not given) (HepG2 cells [4]; 0.25 μM): 26.33%
- Percentage of cells, first peak of cell cycle histogram (phase not given) (HepG2 cells [4]; 0.5 μM): 64.73%
- Percentage of cells, second peak of cell cycle histogram (phase not given) (HepG2 cells [4]; 0.5 μM): 23.27%
- Apoptosis rate of HepG2 cells (HepG2 cells [3]; 1 μM): 10.03%
- Apoptosis rate of HepG2 cells (HepG2 cells [3]; 9 μM): 12.43%

Structure (SMILES): CC[C@@]1(O)C(=O)OCc2c1cc1n(c2=O)Cc2cc3ccccc3nc2-1 [camptothecin]
- inhibition at 0.25 µM (HepG2 cells [5]; HepG2, camptothecin 0.25 μM alone): 61.7%
- inhibition at 0.5 µM (HepG2 cells [5]; HepG2, camptothecin 0.5 μM alone): 60.9%

Structure (SMILES): CC(=O)O[C@H]1C(=O)[C@@]2(C)[C@H]([C@H](OC(=O)c3ccccc3)[C@]3(O)C[C@H](OC(=O)[C@H](O)[C@@H](NC(=O)c4ccccc4)c4ccccc4)C(C)=C1C3(C)C)[C@]1(OC(C)=O)CO[C@@H]1C[C@@H]2O [taxol]
- inhibition at 0.1 µM (HepG2 cells [5]; HepG2, taxol 0.1 μM alone): 57.1%
- inhibition at 0.2 µM (HepG2 cells [5]; HepG2, taxol 0.2 μM alone): 62.4%

Source: publication PMC7593677, “Discovery of N-(2-Amino-4-Fluorophenyl)-4-[bis-(2-Chloroethyl)-Amino]-Benzamide as a Potent HDAC3 Inhibitor” (Frontiers in Oncology, 2020)
